This is an account of results in BindingDB's records for doi:10.1021/jm980511k (Research Triangle Institute, 1999).

For orientation: Ki means the equilibrium dissociation constant of an inhibitor or competing ligand from its target. Low readings indicate higher affinity, high ones lower affinity.

Where only a bound is given, the exact number is not on record here.

Assay [1] can be described thus: Binding affinity determined on Opioid receptor delta 1 in Guinea pig brain membranes using radioligand [3H]DADLE.
Assay [2] is described as follows: Inhibition of [35S]GTP-gamma-S, binding from Opioid receptor delta 1 in Guinea pig Caudate stimulated by SNC80. Background: GTPγS resists hydrolysis and so accumulates on activated G proteins.

With `CC(C)[C@@H](CN1CC[C@@](C)(c2cccc(O)c2)[C@@H](C)C1)NC(=O)CCc1ccc(O)cc1` [3-(4-Hydroxy-phenyl)-N-{1-[4-(3-hydroxy-phenyl)-3,4-dimethyl-piperidin-1-ylmethyl]-2-methyl-propyl}-propionamide], in assay [1], the Ki was over 5700 nM.
Regarding `C[C@@H]1CN(C/C=C/c2ccccc2)CC[C@]1(C)c1cccc(O)c1` [3-[(3S,4S)-3,4-Dimethyl-1-((E)-3-phenyl-allyl)-piperidin-4-yl]-phenol], the Ki in assay [2] was determined as 1.5 nM; in assay [1] it was 322 nM.
